Assay results taken from the NIST ThermoML archive (doi:10.1021/je0500431).
Numbers after ± are expanded uncertainties.

Test: xn = mol fraction of the nth substance listed
Settings: Ring tensiometer

With `OCc1ccccc1` [benzenemethanol] + CC(C)O the surface tension liquid-gas (293.15 K, x2 = 0) was 39.05 ± 0.57 mN/m, the surface tension liquid-gas (293.15 K, x2 = 0.0029) was 37.69 ± 0.55 mN/m and the surface tension liquid-gas (293.15 K, x2 = 0.005) was 37.53 ± 0.55 mN/m. The surface tension liquid-gas (293.15 K, x2 = 0.0076) was 37.21 ± 0.54 mN/m, the surface tension liquid-gas (293.15 K, x2 = 0.0117) was 36.95 ± 0.54 mN/m and the surface tension liquid-gas (293.15 K, x2 = 0.0207) was 36.79 ± 0.54 mN/m. It also gave a surface tension liquid-gas (293.15 K, x2 = 0.0329) of 36.56 ± 0.53 mN/m, a surface tension liquid-gas (293.15 K, x2 = 0.0494) of 36.06 ± 0.53 mN/m and a surface tension liquid-gas (298.15 K, x2 = 0) of 38.58 ± 0.56 mN/m. It also gave a surface tension liquid-gas (298.15 K, x2 = 0.0029) of 37.3 ± 0.54 mN/m, a surface tension liquid-gas (298.15 K, x2 = 0.005) of 37.09 ± 0.54 mN/m and a surface tension liquid-gas (298.15 K, x2 = 0.0076) of 36.8 ± 0.54 mN/m. It also gave a surface tension liquid-gas (298.15 K, x2 = 0.0117) of 36.53 ± 0.53 mN/m, a surface tension liquid-gas (298.15 K, x2 = 0.0207) of 36.37 ± 0.53 mN/m and a surface tension liquid-gas (298.15 K, x2 = 0.0329) of 36.15 ± 0.53 mN/m. For the same molecule, the surface tension liquid-gas (298.15 K, x2 = 0.0494) was 35.53 ± 0.52 mN/m, the surface tension liquid-gas (303.15 K, x2 = 0) was 38.12 ± 0.55 mN/m and the surface tension liquid-gas (303.15 K, x2 = 0.0029) was 36.95 ± 0.54 mN/m. The surface tension liquid-gas (303.15 K, x2 = 0.005) was 36.68 ± 0.54 mN/m, the surface tension liquid-gas (303.15 K, x2 = 0.0076) was 36.43 ± 0.53 mN/m and the surface tension liquid-gas (303.15 K, x2 = 0.0117) was 36.13 ± 0.53 mN/m. It also gave a surface tension liquid-gas (303.15 K, x2 = 0.0207) of 35.97 ± 0.53 mN/m, a surface tension liquid-gas (303.15 K, x2 = 0.0329) of 35.78 ± 0.52 mN/m and a surface tension liquid-gas (303.15 K, x2 = 0.0494) of 35.09 ± 0.52 mN/m. The surface tension liquid-gas (308.15 K, x2 = 0) was 37.63 ± 0.55 mN/m, the surface tension liquid-gas (308.15 K, x2 = 0.0029) was 36.62 ± 0.54 mN/m and the surface tension liquid-gas (308.15 K, x2 = 0.005) was 36.32 ± 0.53 mN/m. For the same molecule, the surface tension liquid-gas (308.15 K, x2 = 0.0076) was 36.05 ± 0.53 mN/m, the surface tension liquid-gas (308.15 K, x2 = 0.0117) was 35.75 ± 0.52 mN/m and the surface tension liquid-gas (308.15 K, x2 = 0.0207) was 35.55 ± 0.52 mN/m. The surface tension liquid-gas (308.15 K, x2 = 0.0329) was 35.41 ± 0.52 mN/m, the surface tension liquid-gas (308.15 K, x2 = 0.0494) was 34.61 ± 0.51 mN/m and the surface tension liquid-gas (313.15 K, x2 = 0) was 37.16 ± 0.54 mN/m. For the same molecule, the surface tension liquid-gas (313.15 K, x2 = 0.0029) was 36.29 ± 0.53 mN/m, the surface tension liquid-gas (313.15 K, x2 = 0.005) was 35.92 ± 0.53 mN/m and the surface tension liquid-gas (313.15 K, x2 = 0.0076) was 35.68 ± 0.52 mN/m. It also gave a surface tension liquid-gas (313.15 K, x2 = 0.0117) of 35.39 ± 0.52 mN/m, a surface tension liquid-gas (313.15 K, x2 = 0.0207) of 35.14 ± 0.52 mN/m and a surface tension liquid-gas (313.15 K, x2 = 0.0329) of 35.04 ± 0.52 mN/m. The surface tension liquid-gas (313.15 K, x2 = 0.0494) was 34.11 ± 0.5 mN/m, the surface tension liquid-gas (318.15 K, x2 = 0) was 36.63 ± 0.54 mN/m and the surface tension liquid-gas (318.15 K, x2 = 0.0029) was 35.89 ± 0.53 mN/m. For the same molecule, the surface tension liquid-gas (318.15 K, x2 = 0.005) was 35.48 ± 0.52 mN/m, the surface tension liquid-gas (318.15 K, x2 = 0.0076) was 35.27 ± 0.52 mN/m and the surface tension liquid-gas (318.15 K, x2 = 0.0117) was 35.04 ± 0.52 mN/m. It also gave a surface tension liquid-gas (318.15 K, x2 = 0.0207) of 34.73 ± 0.51 mN/m, a surface tension liquid-gas (318.15 K, x2 = 0.0329) of 34.62 ± 0.51 mN/m and a surface tension liquid-gas (318.15 K, x2 = 0.0494) of 33.63 ± 0.5 mN/m. It also gave a surface tension liquid-gas (323.15 K, x2 = 0) of 36.18 ± 0.53 mN/m, a surface tension liquid-gas (323.15 K, x2 = 0.0029) of 35.55 ± 0.52 mN/m and a surface tension liquid-gas (323.15 K, x2 = 0.005) of 35.04 ± 0.52 mN/m. It also gave a surface tension liquid-gas (323.15 K, x2 = 0.0076) of 34.92 ± 0.51 mN/m, a surface tension liquid-gas (323.15 K, x2 = 0.0117) of 34.64 ± 0.51 mN/m and a surface tension liquid-gas (323.15 K, x2 = 0.0207) of 34.29 ± 0.51 mN/m. It also gave a surface tension liquid-gas (323.15 K, x2 = 0.0329) of 34.22 ± 0.51 mN/m and a surface tension liquid-gas (323.15 K, x2 = 0.0494) of 33.22 ± 0.49 mN/m.
